Series [1] deals with T1, PXR (Homo sapiens, UniProt O75469).
T1 sequence (O75469 107-434): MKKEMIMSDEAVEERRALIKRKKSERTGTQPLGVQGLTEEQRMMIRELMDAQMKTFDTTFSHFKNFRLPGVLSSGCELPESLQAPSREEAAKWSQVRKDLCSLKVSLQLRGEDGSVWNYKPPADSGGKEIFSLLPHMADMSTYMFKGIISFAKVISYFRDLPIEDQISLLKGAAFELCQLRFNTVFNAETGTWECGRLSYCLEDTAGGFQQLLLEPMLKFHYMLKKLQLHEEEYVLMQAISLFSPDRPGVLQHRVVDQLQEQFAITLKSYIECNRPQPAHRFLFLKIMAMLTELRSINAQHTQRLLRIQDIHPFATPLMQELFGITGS
In words: Medium-throughput screening, HG5LN GAL4-PXR-LBD reporter cell line (HeLa). Particulars: HG5LN GAL4-PXR reporter cells; 3 µM SR12813 = 100% activation; determined prior to the screening. The text has this: Using medium-throughput ligand screening and a mammalian (HeLa) cell-based activation assay (HG5LN GAL4-PXR-LBD reporter cell line)[14][15], we monitored the agonistic potential of 40 chemicals either alone or in binary mixtures (Supplementary Table 1). […] We next examined the effect of TNC, EE2, and their combination in human liver (HepG2) and colon (LS174T) carcinoma cell lines containing the full-length PXR and the CYP3A4-XREM luciferase reporter plasmids.
LS174T stable human PXR transfectant (LS-PXR2) and the corresponding control cells (LS-CTRL), HEPG2-PXR and HG5LN GAL4-PXR reporter cell lines were previously described. […] HEPG2-PXR was obtained after stable transfection of the same PXR expressing plasmid and the XREM-CYP3A4 pGL3b reporter plasmid. […] Finally, LS174T-PXR reporter cell line was established by stable transfection of the CYP3A4-luciferase-hygromycine plasmid in the LS-PXR2 cell line. All cell lines were grown in DMEM medium (Invitrogen) supplemented with 10% fetal calf serum, L-glutamine, and antibiotics (Invitrogen).
HG5LN GAL4-PXR reporter cell lines (100 μl) were seeded at a density of 25,000 cells per well in 96-well white opaque tissue culture plates (Greiner CellStar). […] Then the ligand to be tested in combination with the different ligands was added (50 μl). Cells were incubated at 37 °C for 16 h. At the end of the incubation period, culture medium was replaced with medium containing 3.10^−4 M luciferin. Luciferase activity was measured for 2 s in intact living cells using a plate reader (PerkinElmer Luminometer).
Supplementary Table 1 | Compounds used for screening
#For each ligand, the concentration used was determined prior to the screening experiment. It represents the dose at which the
synthetized in the laboratory4. **Compounds purchased from Tocris Biosciences. ***Compounds purchased by Sigma
Aldrich.****Gift from Sanofi Aventis. All compound stock solutions were prepared at 10 mM in DMSO.

Series [2] has as its target T1, PXR. In words: Transactivation assay (dose-response), HG5LN GAL4-PXR-LBD reporter cells. Particulars: summary of cell-based assays. As to the method: Compounds to be tested were added 24 h later, and cells were incubated at 37 °C for 16 h. […] EC50 values were measured using GraphPad Prism (GraphPad Software Inc.).
A further series deals with T2, PXR LBD (Homo sapiens, UniProt O75469).
T2 construct: Purified PXR(130-434)-SRC-1 was dialysed overnight; His6 (N); made in house; host or cells: E. coli BL21(DE3)
T2 sequence (O75469 with tags, fused parts or gaps limits assumed): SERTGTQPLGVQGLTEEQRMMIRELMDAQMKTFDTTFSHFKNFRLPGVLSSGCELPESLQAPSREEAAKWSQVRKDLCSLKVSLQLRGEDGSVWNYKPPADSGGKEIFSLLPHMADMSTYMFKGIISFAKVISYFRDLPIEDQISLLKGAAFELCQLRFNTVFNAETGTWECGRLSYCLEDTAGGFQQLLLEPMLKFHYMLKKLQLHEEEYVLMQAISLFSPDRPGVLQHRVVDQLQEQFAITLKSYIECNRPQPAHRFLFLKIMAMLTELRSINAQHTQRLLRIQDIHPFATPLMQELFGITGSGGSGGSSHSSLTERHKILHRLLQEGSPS
In words: Non-denaturing ESI-MS of ligand binding. The procedure: Figure 4 Simultaneous binding of EE2 and TNC to PXR. Mass spectrometry analysis. Non-denaturing ESI-MS was used to characterize PXR LBD (10 μM) in (a) the unliganded form or in the presence of (b) EE2 (20 μM), (c) TNC (20 μM), or (d) a mixture of EE2 (20 μM) and TNC (20 μM). *, acetate adducts; $, fortuitous binders 254-324 Da; , fortuitous binder 254 Da; #, non-specific EE2 adducts. TEXT PRINTED IN THE PICTURE: (b) no label printed: 296.4 Da | (c) no label printed: 444.2 Da | (d) no label printed: 740.6 Da DOUBTS OF THE COPYIST ABOUT THIS PICTURE: Panels b, c and d: the drawn structures have no label of their own. The masses in brackets are printed with no measure word and are taken as molecular masses. / Panel d: 740.6 Da is printed under two drawn structures joined by '+', so it belongs to the pair, not to a single substance. / The peak labels of the mass spectra were left out as spectrum annotations of the protein and its complexes: PXR 38,212.5 Da, Theoretical mass 38,217.7 Da, Δ 297 Da, Δ 445 Da and Δ 740 Da.
Mass spectrometry experiments were carried out on an electrospray time-of-flight mass spectrometer (LCT, Waters) equipped with an automated chip-based nanoESI device (Triversa Nanomate, Advion Biosciences). External calibration was done in the positive ion mode over the mass range m/z 500–5,000 using the multiply charged ions produced by 0.5 μM horse heart myoglobin solution diluted in water/acetonitrile 50/50 mixture acidified with 0.5% (v/v) formic acid. Purified PXR(130-434)-SRC1 was buffer exchanged against 50 mM ammonium acetate (NH4Ac), pH 8.0 using NAP5 desalting columns (illustra NAP-5 Columns, GE Healthcare Life Sciences). Protein concentration was determined spectrophotometrically (ɛ280 nm=26,210 l mol^−1 cm^−1). […] Protein concentration was set to 10 μM and different compound concentrations ranging from 20 to 80 μM were tested. Incubations lasted 5 min at 18 °C. Mass spectra were recorded using low cone voltage (Vc, 20 V) and elevated interface pressure (Pi, 5 mbar).

The target of series [3] is T3, fluorescein-labelled NR interaction domain (NID) of SRC-1 (residues 570-780) (UniProt Q15788 570-780, fluorescein at the C-terminus (cys-fluor added on intein cleavage)).
T3 chain: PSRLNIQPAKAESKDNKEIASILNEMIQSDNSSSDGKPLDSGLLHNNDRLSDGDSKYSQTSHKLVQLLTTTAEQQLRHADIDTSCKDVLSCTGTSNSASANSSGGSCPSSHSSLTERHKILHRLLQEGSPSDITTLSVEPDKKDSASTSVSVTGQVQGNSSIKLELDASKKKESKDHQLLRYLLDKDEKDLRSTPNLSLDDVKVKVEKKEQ
In words: FP; apo (no ligand).

The target in series [4] is T3, fluorescein-labelled NR interaction …. In words: FP; TNC+EE2.
For series [5] the target is unchanged. In words: FP; EE2.
The target is the same in series [6]. In words: FP; SR12813.
For series [7] the target is unchanged. In words: FP; TNC.

We go through 16 molecules from PMC4569708, “Synergistic activation of human pregnane X receptor by binary cocktails of pharmaceutical and environmental compounds” (Nature Communications, 2015).

Take `Clc1ccccc1C(c1ccccc1)(c1ccccc1)n1ccnc1` [Clotrimazol, reference compound]: at PXR [1], the “Concentration: dose at which the compound alone induces ≈30% of the luciferase expression obtained with 3 µM SR12813” value came to 0.3 µM. `Cc1cc(C(C)(C)C)ccc1O` [4-tert-butyl-2-methylphenol]: the Concentration: dose at which the compound alone induces ≈30% of the luciferase expression obtained with 3 µM SR12813 at PXR [1] is 1 µM. In the case of `C[C@H]1CCCC(=O)CCC/C=C/c2cc(O)cc(O)c2C(=O)O1` [Zearalenone], the Concentration: dose at which the compound alone induces ≈30% of the luciferase expression obtained with 3 µM SR12813 on PXR [1] stood at 1 µM. Consider `CCCCOC(=O)c1ccccc1C(=O)OCc1ccccc1` [Benzyl butyl phthalate], for which the Concentration: dose at which the compound alone induces ≈30% of the luciferase expression obtained with 3 µM SR12813 on PXR [1] was 1 µM.

As to -zearalanol, the Concentration: dose at which the compound alone induces ≈30% of the luciferase expression obtained with 3 µM SR12813 at PXR [1] was found to be 1 µM. For -zearalenol, the “Concentration: dose at which the compound alone induces ≈30% of the luciferase expression obtained with 3 µM SR12813” value on PXR [1] is 0.3 µM. As for `CC1(C)C(C=C(Cl)Cl)C1C(=O)OC(C#N)c1cccc(Oc2ccccc2)c1` (stereo not shown) [Cypermethrine], the Concentration: dose at which the compound alone induces ≈30% of the luciferase expression obtained with 3 µM SR12813 on PXR [1] came out at 3 µM.

In the case of `CC(=O)O[C@H]1C(=O)[C@@]2(C)[C@H]([C@H](OC(=O)c3ccccc3)[C@]3(O)C[C@H](OC(=O)[C@H](O)[C@@H](NC(=O)c4ccccc4)c4ccccc4)C(C)=C1C3(C)C)[C@]1(OC(C)=O)CO[C@@H]1C[C@@H]2O` [TAXOL, reference compound], the “Concentration: dose at which the compound alone induces ≈30% of the luciferase expression obtained with 3 µM SR12813” value at PXR [1] stood at 0.03 µM. In the case of `Clc1cnc(Oc2ccc(Oc3ncc(Cl)cc3Cl)cc2)c(Cl)c1` [TCPOBOP, reference compound], the Concentration: dose at which the compound alone induces ≈30% of the luciferase expression obtained with 3 µM SR12813 at PXR [1] came out at 1 µM.

Consider `CO[C@H]1/C=C/O[C@@]2(C)Oc3c(C)c(O)c4c(O)c(c(/C=N/N5CCN(C)CC5)c(O)c4c3C2=O)NC(=O)/C(C)=C\C=C\[C@H](C)[C@H](O)[C@@H](C)[C@@H](O)[C@@H](C)[C@H](OC(C)=O)[C@@H]1C` [Rifampicin, reference compound], for which the “Concentration: dose at which the compound alone induces ≈30% of the luciferase expression obtained with 3 µM SR12813” value on PXR [1] was 0.3 µM. On the same count and under the same terms, under `Clc1ccc(C(c2ccccc2Cl)C(Cl)(Cl)Cl)cc1` (stereo not shown) [2,4’DDT] stands 3 µM; under `N#Cc1nn(-c2c(Cl)cc(C(F)(F)F)cc2Cl)c(N)c1S(=O)(=O)C(F)(F)F` [Fipronil sulfone], 3 µM. As to `C#C[C@]1(O)CC[C@H]2[C@@H]3CCc4cc(O)ccc4[C@H]3CC[C@@]21C` [EE2, 17α-ethinylestradiol, reference compound], the “PXR agonism, cell-based assays as a whole” value on PXR [2] was “poor PXR agonists”. Moreover, the Complex detected on PXR LBD (PXR 10 μM, 2 molar equivalent excess of compound (20 μM)) was about 70%. Further, at PXR LBD (native ESI-MS), the “Range of affinity for PXR” value is on record as “low micromolar range”.

For `Cc1ccc(/C=C2/C(=O)C3(C)CCC2C3(C)C)cc1` (stereo not shown) [4-methylbenzylidene camphor], the Concentration: dose at which the compound alone induces ≈30% of the luciferase expression obtained with 3 µM SR12813 at PXR [1] was determined as 1 µM. For `Clc1ccc(C(c2ccc(Cl)cc2)C(Cl)(Cl)Cl)cc1` [4,4’DDT], the Concentration: dose at which the compound alone induces ≈30% of the luciferase expression obtained with 3 µM SR12813 at PXR [1] came to 3 µM.

B1: PXR/RXR LBD heterodimer (complex)
chain 1: SERTGTQPLGVQGLTEEQRMMIRELMDAQMKTFDTTFSHFKNFRLPGVLSSGCELPESLQAPSREEAAKWSQVRKDLCSLKVSLQLRGEDGSVWNYKPPADSGGKEIFSLLPHMADMSTYMFKGIISFAKVISYFRDLPIEDQISLLKGAAFELCQLRFNTVFNAETGTWECGRLSYCLEDTAGGFQQLLLEPMLKFHYMLKKLQLHEEEYVLMQAISLFSPDRPGVLQHRVVDQLQEQFAITLKSYIECNRPQPAHRFLFLKIMAMLTELRSINAQHTQRLLRIQDIHPFATPLMQELFGITGS
chain 2: TSSANEDMPVERILEAELAVEPKTETYVEANMGLNPSSPNDPVTNICQAADKQLFTLVEWAKRIPHFSELPLDDQVILLRAGWNELLIASFSHRSIAVKDGILLATGLHVHRNSAHSAGVGAIFDRVLTELVSKMRDMQMDKTELGCLRAIVLFNPDSKGLSNPAEVEALREKVYASLEAYCKHKYPEQPGRFAKLLLRLPALRSIGLKCLEHLFFFKLIGDTPIDTFLMEMLEAPHQMT
Turning to B1, the Kd in series [3] turned out to be 0.368 µM; in series [4], 0.0845 µM; in series [5] it was 0.272 µM; in series [6] it was 0.093 µM; in series [7], 0.45 µM.

As a reminder, the Kd is the free concentration of one partner at which half of the binding sites on the other are occupied at equilibrium, for simple one-to-one binding. A higher Kd goes with lower affinity.
